# Paper PMC4171606, “A novel copper(I) complex induces ER-stress-mediated apoptosis and sensitizes B-acute lymphoblastic leukemia cells to chemotherapeutic agents” (Oncotarget, 2014)
# Key:
# [1] = tested on: Bone marrow cells from healthy donors; experiment: Annexin-V-FITC/PI viability by flow cytometry, 24 h; type: cell-based, human; conditions: CP 2.5 μM and 5 μM
# Procedure: CP growth inhibitory activity was measured on primary cultures derived from pediatric patients affected by B-acute lymphoblastic leukemia. […] In particular, in resting and in PHA-stimulated PBMC, and in CD19^+ cells GI50 was higher than 10 μM confirming that CP preferentially affects leukemia cells.
# FIGURE 6 CP effects on B-ALL primary cultures (A) Blast cells from six B-ALL patients were incubated for 24 h with different concentrations of CP. For the sake of comparison CD19^+ cells from peripheral blood of healthy donors, and PBMC were also incubated with CP in the presence or absence of PHA. Cell viability were assayed by MTT analysis. Data are represented as mean ± S.E.M of four independent experiments. (B) Bone marrow cells from healthy donors were treated for 24 h with CP (2.5 μM and 5 μM). Cell viability was evaluated on the whole population by flow cytometry after staining the cells with Annexin-V-FITC and PI. are represented as mean ± S.E.M of 3 independent experiments. […]
# Surface exposure of PS by apoptotic cells was measured by flow cytometry with a Coulter Cytomics FC500 (Beckmann Coulter, USA) by adding Annexin V-FITC and propidium iodide (PI) to cells according to the manufacturer's instructions (Annexin-V Fluos, Roche Diagnostic, Italy).
# CHOP = experiment: Western blot, ER stress marker CHOP; type: cell-based, human; conditions: SEM and RS4;11, CP 2.5 μM
# Procedure: Moreover we found an increase in CHOP expression starting from 3 h of CP treatment. […] Whilst GRP78, due to its chaperon activity, exerts a protective function, CHOP promotes ER-stress cell death, thus the rapid activation of pro-death signals and the late activation of pro-survival chaperone GRP78 could explain the commitment toward apoptosis induced by CP. Moreover, in unresolvable stress conditions, an increased CHOP expression has been correlated to the induction of the expression of many apoptotic genes and to the down-regulation prosurvival genes, such as Bcl-2 [30].
# FIGURE 4 CP induces ER stress Western Blot analysis showing expression of GRP78 and CHOP in SEM (A) and in RS4;11 (B) cells. Cells were treated with CP 2.5 μM for the indicated times. (C) PCR analysis showing the induction of XBP1 splicing in SEM and RS4;11 cells. Cells were treated with CP (2.5 μM) or Tunicamycin (2 μg/ml) as positive control for 12 h.
# Cells were treated with CP and, after different times, were collected, centrifuged and washed with ice cold phosphate-buffered saline (PBS). The pellet was then resuspended in lysis buffer as described. The protein concentration in the supernatant was determined using the BCA protein assay (Pierce, Italy). […]
# [2] = tested on: human leukemia cell lines; experiment: MTT growth inhibition, panel of twelve leukemia cell lines, 72 h; type: cell-based; conditions: healthy lymphocytes vs B-leukemia cells
# Procedure: [Cu(thp)4][PF6] (CP) was evaluated for its growth inhibition activity on a panel of twelve different human leukemia cell lines (five B-acute lymphoblastic leukemia, three T-acute lymphoblastic leukemia, three acute myeloid leukemia and one chronic myeloid leukemia). Cells were treated for 72 h with CP and cell viability was evaluated by MTT test. […] This abnormal high expression of proteasomal proteins and mRNA seem to be correlated to the hyperproliferation of these cancer cells and to the sensitivity towards proteasome inhibitors.
# The human leukemia cell lines RS 4;11, SEM, REH, RCH-ACV, MHH-CALL2, Jurkat, CCRF-CEM, HSB2, HL-60, K562, THP-1, MV4;11 were purchased from the American Type Culture Collection. Cells were cultured in RPMI 1640 (Life Technologies, Italy) supplemented with 10% fetal bovine serum (FBS), glutamine (2 mM; Life Technologies, Italy), penicillin (100 U/ml; Life Technologies, Italy) and streptomycin (100 μg/ml; Life Technologies, Italy), and maintained at 37°C in a humidified atmosphere with 5% CO2. The cytotoxic activity of CP was determined using a standard 3-[4,5-dimethylthiazol-2-yl]-2,5-diphenyltetrazodium bromide (MTT) based colorimetric assay (Sigma-Aldrich, Italy). Briefly, cells were seeded at a density of 2×10^4 cells/well in 96-well microtiter plates. After 24 h, cells were exposed to the test compound. After different times, cell survival was determined by the addition of an MTT solution as previously described.
smiles,measurement,setting,value
"F[P-](F)(F)(F)(F)F.OCP(CO)CO.OCP(CO)CO.OCP(CO)CO.OCP(CO)CO.[Cu+] [CP, [Cu(thp)4][PF6]]",viability of lymphocyte and monocyte populations,[1],did not affect the viability
same,onset of increase in CHOP expression,CHOP,≥ 3 h
same,cytotoxic activity on healthy lymphocytes lower than B-leukemia cells,[2],5-10 fold
